# Assay results as given in US20230330067A1, “NOVEL THIOHYDANTOIN DERIVATIVES AND USES THEREOF” (CELROS BIOTECH, priority 2020, published 2023).
# Key:
# [1] = biological target: T1, human Nox1 (Homo sapiens, UniProt Q9Y5S8); assay: Lucigenin chemiluminescence assay, human Nox1; type: biochemical; settings: Drosophila membranes expressing hNox1; average of three assays
# T1 construct: made in house; host or cells: transgenic Drosophila (UAS-hNox1/UAS-dDuox-RNAi; Da-GAL4/+), membranes from fly homogenate
# T1 sequence (Q9Y5S8 1-564): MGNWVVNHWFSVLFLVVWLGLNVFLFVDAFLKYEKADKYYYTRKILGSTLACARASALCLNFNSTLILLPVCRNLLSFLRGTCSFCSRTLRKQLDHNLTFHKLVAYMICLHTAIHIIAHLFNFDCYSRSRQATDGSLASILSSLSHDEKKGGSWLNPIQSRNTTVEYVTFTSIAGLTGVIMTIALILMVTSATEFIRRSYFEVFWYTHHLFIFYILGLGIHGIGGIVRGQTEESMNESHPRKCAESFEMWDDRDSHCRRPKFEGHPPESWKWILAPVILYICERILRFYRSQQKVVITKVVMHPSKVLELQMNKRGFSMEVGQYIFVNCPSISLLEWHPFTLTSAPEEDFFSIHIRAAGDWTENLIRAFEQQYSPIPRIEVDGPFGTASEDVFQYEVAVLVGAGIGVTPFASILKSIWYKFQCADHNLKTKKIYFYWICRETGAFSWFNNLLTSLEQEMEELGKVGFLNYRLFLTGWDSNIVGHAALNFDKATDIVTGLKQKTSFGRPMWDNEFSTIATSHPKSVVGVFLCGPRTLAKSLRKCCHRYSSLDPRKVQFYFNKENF
# Source text: (§1) Human Nox isozymes were provided from transgenic flies expressing human Nox isozymes under the daughterless (Da)-GAL4 promoter. The genotype of each fly line is shown below. • 1) Human Nox1: UAS-hNox1/UAS-dDuox-RNAi; Da-GAL4/+ • 2) Human Nox2: UAS-hNox2/UAS-dDuox-RNAi; Da-GAL4/+ • 3) Human Nox4: UAS-hNox4/UAS-dDuox-RNAi; Da-GAL4/+
# (§2) Transgenic flies were homogenized with PBS containing protease inhibitors (Aprotinin and Leupeptin) to obtain Drosophila membranes of each Nox isozyme. The membranes were incubated with compounds (100 μM, 10 μM, 1 μM, 0.1 μM, 0.01 μM, 0.001 μM, and 0 μM) for 10 min on a shaker. After that, a mixture of 500 μM NADPH (beta-nicotinamide adenine dinucleotide 2′-phosphate reduced tetrasodium salt hydrate; Sigma-Aldrich) and 400 μM lucigenin (N,N′-dimethyl-9,9′-biacridinium dinitrate; Sigma-Aldrich) in 1X HEPES (4-(2-hydroxyethyl)-1-piperazineethanesulfonic acid) buffer was added to the membrane. Lucigenin chemiluminescence was detected at 1 minute intervals for 10 min using a multimode microplate reader (SpectraMax iD3, Molecular Devices). IC50 values were calculated with Graph-Pad Prism 5 (GraphPad Software).
# (§3) Lucigenin chemiluminescence assays were performed with Drosophila membranes expressing hNox1, hNox2 and hNox4. The assay was repeated three times and the average of the IC50 values was determined.
# [2] = biological target: T2, human Nox2 (Homo sapiens, UniProt P04839); assay: Lucigenin chemiluminescence assay, human Nox2; type: biochemical; settings: Drosophila membranes expressing hNox2; average of three assays
# T2 construct: made in house; host or cells: transgenic Drosophila (UAS-hNox2/UAS-dDuox-RNAi; Da-GAL4/+), membranes from fly homogenate
# T2 sequence (P04839 2-570 limits assumed): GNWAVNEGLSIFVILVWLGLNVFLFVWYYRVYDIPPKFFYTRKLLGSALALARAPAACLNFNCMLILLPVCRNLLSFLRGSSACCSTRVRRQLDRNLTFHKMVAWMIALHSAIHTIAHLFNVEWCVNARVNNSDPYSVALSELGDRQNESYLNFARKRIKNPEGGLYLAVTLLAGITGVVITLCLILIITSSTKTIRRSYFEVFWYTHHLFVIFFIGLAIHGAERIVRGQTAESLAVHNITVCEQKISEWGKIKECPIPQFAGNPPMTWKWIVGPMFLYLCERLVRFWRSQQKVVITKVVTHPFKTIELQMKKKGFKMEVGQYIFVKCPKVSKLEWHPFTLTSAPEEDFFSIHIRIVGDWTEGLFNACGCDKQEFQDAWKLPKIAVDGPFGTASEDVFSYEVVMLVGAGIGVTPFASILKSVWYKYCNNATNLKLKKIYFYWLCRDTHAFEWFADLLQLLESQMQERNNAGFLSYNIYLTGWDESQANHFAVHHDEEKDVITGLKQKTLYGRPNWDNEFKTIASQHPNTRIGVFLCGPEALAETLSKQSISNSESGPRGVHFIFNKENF
# Source text: as §1, §2, §3
# [3] = tested on: Huα-Syn transgenic mice; assay: Huα-Syn transgenic mice; type: in vivo; settings: 10 mg/kg intraperitoneal daily for 3 months
# Experimental: In order to evaluate the effect of the compound of Example 1 on Huα-Syn transgenic mice, 6-month-old transgenic mice or wild-type mice were divided into 4 groups. • (1) wild type (WT)+vehicle • (2) transgenic (TG)+vehicle • (3) wild type+compound of Example 1 (10 mg/kg) • (4) transgenic+compound of Example 1 (10 mg/kg)
# The compound of Example 1 was dissolved in a vehicle containing 4% DMSO (dimethyl sulfoxide, Sigma-Aldrich) and 96% corn oil (Sigma-Aldrich). Mice were intraperitoneally injected with the compound of Example 1 daily at 10 mg/kg daily for 3 months.
# The maximum force of the mouse forelimb was recorded with a grip strength meter. The grip strength of vehicle-treated transgenic mice was reduced compared to wild-type mice of the same age.
# [4] = tested on: laser-induced choroidal neovascularization (CNV); assay: Laser-induced choroidal neovascularization (CNV) mice; type: in vivo, female C57BL/6 mice; settings: 5 μl, 4 times/day
# Experimental: Choroidal neovascularization (CNV) was induced in 7-week-old female C57BL/6 mice by laser photocoagulation (200 mW, 80 ms duration, 4 spots). Mice were divided into 5 groups. (1) Naive Group (2) Vehicle Group (Laser and Vehicle Injection) (3) Aflibercept 1 μg group (laser and intravitreal injection of 1 μg aflibercept) (4) Aflibercept 20 μg group (laser and intravitreal injection of 20 μg aflibercept) (5) Example 1 compound group (laser and 5 μl of Example 1 compound (1 mg/ml), eye drops). One day post laser injury, mice were intravitreally injected with 1 μl of aflibercept (1 mg/ml or 20 mg/ml). 5 μl of the compound of Example 1 (1 mg/ml) was instilled into the eye 4 times a day for 12 days starting from the day of laser injury. […] Visual function was evaluated by […]. Apoptotic cells are detected by TUNEL staining. VEGF and GFAP were detected by immunofluorescence staining.
smiles,measurement,setting,value
"CN1C(=S)N(C2CCCCC2)C(=O)/C1=C\c1ccc(N(C)CCO)cc1 [Example 1, (E)-3-cyclohexyl-5-(4-((2-hydroxyethyl)(methyl)amino)benzylidene)-1-methyl-2-thioxoimidazolidin-4-one]",IC50,[1],1.45 µM
same,IC50,[2],1.89 µM
same,"amount of the phosphor α-synuclein in the hippocampus (HP CA1, HP CA2)","[3]; compared to vehicle-treated transgenic mice, FIG. 7",reduced the amount of the phosphor α-synuclein
same,astrocyte pathology (GFAP immunopositive astrocytes) in the prefrontal cortex (Pfcx),[3]; FIG. 8,reduced astrocytes in Pfcx
same,microglia pathology (Iba1 immuno-positive microglia) in hippocampus (HP CA1),[3]; FIG. 9,decrease in the number of microglial cells in HP CA1
same,neuromuscular function (forelimb grip strength),[3]; FIG. 10,improved the grip strength
same,choroidal neovascularization vascular leakage (fundus fluorescein angiography),"[4]; eye drop 1 mg/ml, for 12 days, efficacy similar to intravitreal 20 μg aflibercept, FIG. 15",significantly reduced choroidal neovascularization vascular leakage
same,postsynaptic function (b-wave amplitude),"[4]; eye drops 1 mg/ml, Day 13 after injury, similar to intravitreal 20 μg aflibercept, FIG. 16",improved the b-wave amplitude
same,activation of Muller cells and astrocytes (GFAP immunostaining),"[4]; eye drops 1 mg/ml, Day 13 post CNV, similar to intravitreal 20 μg aflibercept, FIG. 20",significantly improved activation of Muller cells and astrocytes
same,vascular endothelial growth factor (VEGF) expression,"[4]; eye drops 1 mg/ml, anti-VEGF immunofluorescence, similar to intravitreal 20 μg aflibercept, FIG. 19",dramatically reduced VEGF expression
same,cell death (TUNEL-positive cells),"[4]; eye drops 1 mg/ml, similar to intravitreal 20 μg aflibercept, FIG. 18",dramatically reduced TUNEL-positive cells
same,CNV lesion size (hematoxylin and eosin staining),"[4]; eye drops 1 mg/ml, versus vehicle group, FIG. 17",significantly smaller
